Measurements published in patent US11220689B2, “Modulators of telomere disease” (Children's Medical Center Corporation, priority 2015, dated 2022).

How the values were obtained:
[1] = tested on: PAPD5; assay: CRISPR/Cas9 genome targeting of PAPD5 in PARN mutant iPSCs, lentiviral gRNA; type: cell-based, human
Procedure: (§1) Experiments were performed to determine the requirement of PARN and PAPD5 for viability and function of human stem cells. CRISPR/Cas9 genome targeting was performed to create biallelic null mutations. Lentiviral vectors containing guide RNAs (gRNAs; Table 15) to PARN or PAPD5 were designed and used to transduce normal (WT) and PARN mutant induced pluripotent stems (iPSCs), and the frequency of insertion/deletions (indels) were assessed. […] Populations of stable lentiviral transduced PARN or PAPD5 targeted iPSCs were subcloned to identify lines with biallelic inactivation of PARN or PAPD5. […] In contrast, iPSCs with indels causing frameshifts in PAPD5 and lacking PAPD5 protein could be isolated (FIG. 23). Inactivation of PAPD5 by CRISPR/Cas9 augmented TERC levels in iPSC clones (FIG. 24).

[2] = target: recombinant PAPD5 (Homo sapiens, UniProt Q8NDF8); assay: Inhibition of recombinant PAPD5 by aminoglycosides; type: biochemical; conditions: 10 μM each; FIG. 26
Procedure: FIG. 26 is a graph showing inhibition of recombinant PAPD5 by aminoglycosides.
Experiments were performed to determine whether aminoglycosides can be used to inhibit PAPD5. 10 μM each of the following are used, (1) Kanamycin B sulfate; (2) Apramycin sulfate; (3) Spectinomycin dihydrochloride pentahydrate; and (4) Ribostamycin sulfate.

[3] = tested on: human PAPD5; assay: PAPD5 shRNA knockdown in PARN deficient HEK 293 cells: 3' RACE deep sequencing and Northern blot of TERC; type: cell-based; conditions: Northern blot, normal and PARN deficient HEK 293 cells, FIG. 11G, FIG. 18
From the text: short-hairpin RNA (shRNA) constructs. Duplex oligonucleotides encoding shRNA targeting human PAPD5 (ENA accession: FR872509) or luciferase control (Table 13) were cloned into the pLKO.1-puro vector and pLKO.1-blast vectors (Addgene #10878 and #26655). shRNA constructs targeting human PARN (NM_002582) were as described, e.g., in Moon, Diane H., et al. “Poly (A)-specific ribonuclease (PARN) mediates 3 [prime]-end maturation of the telomerase RNA component.” Nature genetics 47.12 (2015): 1482-1488.
Viral vector production and transduction. […]. Lentiviral particles were produced by co-transfection of HEK 293T cells with lentiviral vectors, pCMV_dR8.91 and pCMV_VSV-G. For knockdown and overexpression experiments, HEK 293 cells, fibroblasts and iPSCs were transduced with viral vectors in the presence of protamine sulfate (10 μg/ml) for 8-12 hours. For TERC and DKC1 experiments, transduced HEK 293 cells and fibroblasts were sorted for mCherry or EGFP expression and cultured without further selection. […]
Formaldehyde/agarose gel electrophoresis. […] Quantification was performed using ImageJ. […]
TERC RNA 3′ ends were profiled as described in e.g., Moon, Diane H., et al. “Poly (A)-specific ribonuclease (PARN) mediates 3 [prime]-end maturation of the telomerase RNA component.” Nature genetics 47.12 (2015): 1482-1488. […] Reads mapping to the TERC gene were analyzed using custom developed Perl scripts.

[4] = tested on: human TRF4-2; assay: Lentiviral shRNA knockdown of TRF4-2 (PAPD5) in fibroblasts and patient-derived cells; type: cell-based
From the text: Short-hairpin RNA (shRNA) constructs. Duplex oligonucleotides encoding shRNA targeting human TRF4-2 (ENA accession number: FR872509) and human PARN (NM_002582) or luciferase control (Table 6) were cloned into the pLKO.1-puro vector (Addgene #10878), and pLKO.1-blast vector (Addgene #26655). Lentiviral vector production and transduction of cells.
Lentiviral vectors encoding shRNAs were produced by co-transfection of 293 cells with lentiviral plasmids described above, pCMV_dR8.91 and pCMV_VSV-G, using branched polyethylenimine (Sigma). Supernatants were harvested, filtered and frozen in aliquots on days 3-4 following transfection. For knockdown experiments, cells were transduced with lentivirus and harvested 6 days after selection in puromycin (2 μg/ml for 293 cells; 0.2 μg/ml for iPS cells) or blasticidin (10 μg/ml for 293 cells).

[5] = tested on: PARN; assay: CRISPR/Cas9 genome targeting of PARN in normal (WT) iPSCs, lentiviral gRNA; type: cell-based, human
Procedure: as §1

[6] = tested on: human PARN; assay: PARN shRNA knockdown in 293 cells: 3' RACE and deep sequencing of TERC 3' ends; type: cell-based; conditions: versus control shRNA, FIG. 8
Procedure: 600 ng of total RNA was ligated to 5 μM of 5′-adenylated, 3′-blocked adapter (Universal miRNA cloning linker, New England Biolabs, Ipswich, Mass.) with 280 units of T4 RNA ligase truncated KQ (New England Biolabs, Ipswich, Mass.), 25% PEG 8000, and 1 μl RNaseOUT (Life Technologies, Carlsbad, Calif.) in a 20 μl reaction at 25 degrees C. for 16-24 hr. After cleanup with RNA Clean and Concentrator columns (Zymo Research, Irvine, Calif.), followed by DNase treatment, cDNA was synthesized with 5 pmol of universal RT primer and SuperScript III. […] PCR products were directly analyzed run on 2.5% agarose gels to visualize mature and extended TERC transcripts, or subject to Qiaquick PCR purification columns (Qiagen, Hilden, Germany) for library preparation for deep sequencing. […]
RACE products were prepared for deep sequencing using the TruSeq Nano DNA LT Library Prep Kit (Illumina, San Diego, Calif.). […] The quality and quantity of each library was determined on an Advanced Analytical Fragment Analyzer. […] The reads were de-multiplexed with CASAVA 1.8.2 and the read 1 and read 2 fastq files for each sample were generated. For data analysis, the Illumina adapter sequence was first removed from the end of each read using Trimmomatic50. […] The joined-reads from each sample were then mapped to the TERC gene (NR_001566; SEQ ID NO: 99) with the Bowtie2 mapper52, and outputted to a SAM file. […]

Chain of recombinant PAPD5 (Q8NDF8 whole entry): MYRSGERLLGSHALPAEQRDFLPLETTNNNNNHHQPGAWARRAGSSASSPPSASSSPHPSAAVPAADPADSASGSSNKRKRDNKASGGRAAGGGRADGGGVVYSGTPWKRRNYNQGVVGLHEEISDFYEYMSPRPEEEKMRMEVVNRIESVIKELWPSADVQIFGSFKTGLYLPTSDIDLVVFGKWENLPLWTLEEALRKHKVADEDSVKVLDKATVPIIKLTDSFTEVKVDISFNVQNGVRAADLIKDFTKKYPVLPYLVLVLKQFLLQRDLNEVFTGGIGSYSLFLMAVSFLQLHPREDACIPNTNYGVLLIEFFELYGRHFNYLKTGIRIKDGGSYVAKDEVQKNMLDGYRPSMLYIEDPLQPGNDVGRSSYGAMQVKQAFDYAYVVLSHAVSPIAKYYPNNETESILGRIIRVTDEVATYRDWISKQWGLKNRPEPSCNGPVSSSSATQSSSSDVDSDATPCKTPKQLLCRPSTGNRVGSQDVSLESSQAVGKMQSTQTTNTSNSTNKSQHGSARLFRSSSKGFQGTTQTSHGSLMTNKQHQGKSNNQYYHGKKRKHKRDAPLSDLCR

Compound: gRNA 451: guide RNA targeting PAPD5 for CRISPR/Cas9, SEQ ID NO: 88 (target + PAM), 89 (guide CCTCTTGTTGCTGCTGCCCG; listed as DNA, chemistry not given here)
- frequency of insertion/deletions (indels) ([1]; PAPD5 gRNAs): highest frequency of indels
- PAPD5 transcript levels ([1]; PARN mutant cells, qPCR, FIG. 21A): reductions
- TERC RNA levels ([1]; PARN mutant cells, qPCR, FIG. 21B): increases

Compound: CN[C@@H]1[C@H](O)[C@H](NC)[C@H]2O[C@@]3(O)C(=O)C[C@@H](C)O[C@H]3O[C@@H]2[C@H]1O.Cl.Cl.O.O.O.O.O [Spectinomycin dihydrochloride pentahydrate]
- inhibition of PAPD5 [2]: can inhibit PAPD5

Compound: NC[C@H]1O[C@H](O[C@H]2[C@H](O[C@@H]3O[C@H](CO)[C@@H](O)[C@H]3O)[C@@H](O)[C@H](N)C[C@@H]2N)[C@H](N)[C@@H](O)[C@@H]1O.O=S(=O)(O)O [Ribostamycin sulfate]
- inhibition of PAPD5 [2]: can inhibit PAPD5

Compound: PAPD5 shRNA2: lentivirus-encoded shRNA targeting human PAPD5, SEQ ID NO: 79 in Table 13 (CCGGGCCACATATAGAGATTGGATACTCGAGTATCCAATCTCTATATGTGGCTTTTTG)
- steady state levels of TERC transcripts [3]: increased
- TERC levels [4]: restored the TERC levels
- knock-down of PAPD5 [4]: knocked-down PAPD5 to significant levels

Compound: PAPD5 shRNA1: lentivirus-encoded shRNA targeting human PAPD5, SEQ ID NO: 83 in Table 13 (CCGGCGATGTTGGAAGGAGTTCATACTCGAGTATGAACTCCTTCCAACATCGTTTTTG)
- steady state levels of TERC transcripts [3]: increased
- TERC levels [4]: restored the TERC levels
- knock-down of PAPD5 [4]: knocked-down PAPD5 to significant levels

Compound: NC[C@H]1O[C@H](O[C@H]2[C@H](O)[C@@H](O[C@H]3O[C@H](CO)[C@@H](O)[C@H](N)[C@H]3O)[C@H](N)C[C@@H]2N)[C@H](N)[C@@H](O)[C@@H]1O.O=S(=O)(O)O [Kanamycin B sulfate]
- inhibition of PAPD5 [2]: can inhibit PAPD5

Compound: PARN gRNA 91: guide RNA targeting PARN for CRISPR/Cas9, SEQ ID NO: 94 (target + PAM), 95 (guide TGAAGTGTTAGGAGATACAT; listed as DNA, chemistry not given here)
- frequency of insertion/deletions (indels) [5]: high frequency of indels
- PARN RNA transcript levels ([5]; qPCR, FIG. 20A): reductions
- TERC RNA levels ([5]; qPCR, FIG. 20B): reductions

Compound: Apramycin sulfate
- inhibition of PAPD5 [2]: can inhibit PAPD5

Compound: PARN shRNA1: lentivirus-encoded shRNA directed against PARN (3' untranslated region), SEQ ID NO: 74 (DNA CCGGCCGCACTGTATTTAACTTAATCTCGAGATTAAGTTAAATACAGTGCGGTTTTTG)
- levels of mature TERC [6]: diminished levels of mature TERC
- oligo(A) forms of TERC [6]: increased oligo(A) forms
